{"source": "patent US5519049A", "about": "“Macrolides for the treatment of reversible obstructive airways diseases” (Fisons plc, priority 1989, dated 1996)", "key": {"ddy mice": {"test_system": "ddy mice", "experiment": "Acute intraperitoneal toxicity study", "assay_type": "in vivo", "details": "100 mgkg^-1"}, "[1]": {"test_system": "antigen-induced bronchial hyper-responsiveness to acetylcholine", "experiment": "Assay for antigen-induced bronchial hyper-responsiveness to acetylcholine (PC200-Ach)", "assay_type": "in vivo, inhalation-sensitized male Hartley guinea pigs", "details": "oral pretreatment every other day, 1 mgml^-1 solution, n = 7, result in words (table title)", "description": "(§1) Assay for inhibitory activity against respiratory resistance and antigen-induced bronchial hyper-responsiveness\n(§2) Male Hartley guinea pigs (weighing about 300 g) were each placed in a plastic inhalation chamber. Using an ultrasonic nebulizer (NEU10B, Omron Corporation), an aerosolized solution of ovalbumin in physiological saline (10 mgml^-1) was introduced into the chamber for 10 minutes daily for 10 consecutive days to effect sensitization. The animals were used in the experiments 5 days after establishment of sensitization.\nDuring the period from the first day of sensitization to the day before an antigen challenge, the animals were orally treated with a 1 mgml^-1 solution of FR-900506 (in ethanol/olive oil [2:78 v/v]) every other day. Control animals received the ethanol/olive oil vehicle alone in the same manner. […]\nGuinea pigs prepared by the method described above were placed in an animal box as described above and the baseline respiratory resistance was measured. […] From the concentration-resistance curve constructed from the acetylcholine concentration and respiratory resistance data, the acetylcholine concentration necessary for increasing the respiratory resistance to twice the baseline value [i.e. PC200 -Ach (μgml^-1)] was calculated.\n(§3) The results are expressed as mean ±SEM. […]"}, "respiratory resistance": {"test_system": "respiratory resistance", "experiment": "Assay for respiratory resistance (inhibitory activity after antigen inhalation challenge, oscillation method)", "assay_type": "in vivo, inhalation-sensitized male Hartley guinea pigs", "details": "oral pretreatment every other day, 1 mgml^-1 solution; n = 7; after ovalbumin inhalation challenge; result in words (table title)", "description": "as §1, §2\nDuring the period from the first day of sensitization to the day before an antigen challenge, the animals were orally treated with a 1 mgml^-1 solution of FR-900506 (in ethanol/olive oil [2:78 v/v]) every other day. Control animals received the ethanol/olive oil vehicle alone in the same manner.\nThe experimental period was 5 days from day 1 to day 5, and the inhalation challenge with the antigen was given on day 2.\nOn day 1, and 30 minutes before antigen inhalation challenge on day 2, metopirone (an endogenous cortisol synthesis inhibitor) was intravenously administered (10 mgkg^-1). So that the animals could tolerate the antigen at comparatively high concentrations, chlorpheniramine maleate, an antihistaminic, was intraperitoneally administered (10 mgkg^-1) following the second dose of metopirone. […]\nas §3"}}}
{"smiles": "C=CC[C@@H]1/C=C(\\C)C[C@H](C)C[C@H](OC)[C@H]2O[C@@](O)(C(=O)C(=O)N3CCCC[C@H]3C(=O)O[C@H](/C(C)=C/[C@@H]3CC[C@@H](O)[C@H](OC)C3)[C@H](C)[C@@H](O)CC1=O)[C@H](C)C[C@@H]2OC", "note": "[FR-900506]", "values": [{"measurement": "Acute intraperitoneal toxicity, deaths", "setting": "ddy mice", "result": "no deaths"}, {"measurement": "Inhibitory effect on antigen induced hyper-responsiveness to acetylcholine", "setting": "[1]", "result": "Inhibitory effect"}, {"measurement": "Inhibitory effect on respiratory resistance", "setting": "respiratory resistance", "result": "Inhibitory effect"}]}
